Data on 8 compounds can be found in ChEMBL document CHEMBL4359891, “Synthesis of polyfluoroalkyl sp2-iminosugar glycolipids and evaluation of their immunomodulatory properties towards anti-tumor, anti-leishmanial and anti-inflammatory therapies” (Eur J Med Chem, 2019).

Calls of active or inactive are those of the source. The calls are words filed in the database; no cut-off is given here.

One series concerns Leishmania donovani. Briefly: Antileishmanial activity against intracellular amastigote stage of Leishmania donovani fused with LUC infected in human THP1 cells assessed as parasite growth inhibition after 72 hrs post infection by luciferase based assay. The settings on record: THP-1, 72 h. It counts as functional, organism-based.
Another series relates to T47D. Briefly: Antiproliferative activity against human T47D cells assessed as growth inhibition after 48 hrs by SRB assay. The format is functional. On the technique in general: The SRB assay estimates cell density from bound dye.
The subject of the next series is SW1573. Briefly: Antiproliferative activity against human SW1573 cells assessed as growth inhibition after 48 hrs by SRB assay. The format is functional. To be noted: SW1573, 48 h.
The nature of series [1]: Critical aggregation concentration of compound by spectrofluorophotometric method. It counts as physicochemical.
The subject of a further series is A549. Briefly: Antiproliferative activity against human A549 cells assessed as growth inhibition after 48 hrs by SRB assay. To be noted: A549, 48 h. The format is functional.
For the next series, the system named is WiDr. Briefly: Antiproliferative activity against human WiDr cells assessed as growth inhibition after 48 hrs by SRB assay. It counts as functional.
The test system of a further series is HBL-100. Briefly: Antiproliferative activity against human HBL100 cells assessed as growth inhibition after 48 hrs by SRB assay. It counts as functional. The settings on record: HBL-100, 48 h.
For a further series, the system named is HeLa. Briefly: Antiproliferative activity against human HeLa cells assessed as growth inhibition after 48 hrs by SRB assay. It counts as functional.
Another series concerns THP-1. Briefly: Cytotoxicity against human THP1 cells assessed as reduction in cell viability after 72 hrs by MTT assay. The format is cell-based. The settings on record: THP-1, 72 h.
Series [2] deals with Mitogen-activated protein kinase 14 (Mus musculus) (UniProt P47811). Briefly: Activation of p38 alpha MAPK in mouse BV2 cells assessed as p38 phosphorylation at 1 uM incubated for 15 to 60 mins by Western blot analysis. It counts as cell-based.
The target is the same in series [3]. Briefly: Activation of p38 alpha MAPK in mouse BV2 cells assessed as p38 phosphorylation at 1 uM by Western blot analysis. The format is cell-based. To be noted: TDE = time-dependent effect. On the technique in general: In western blotting, separated proteins are transferred to a membrane and probed.
Series [4] deals with BV-2. Briefly: Antiinflammatory activity against mouse BV2 cells assessed as reduction in LPS-induced nitrite level at 1 to 10 uM by Griess assay. The format is functional, cell-based.
Series [5] relates to BV-2. Briefly: Cytotoxicity against mouse BV2 cells assessed as reduction in cell viability up to 10 uM by crystal violet staining based assay.
In series [6] the test system is BV-2. Briefly: Antiinflammatory activity against mouse BV2 cells assessed as reduction in LPS-induced iNOS protein expression at 1 uM by Western blot analysis. It counts as functional, cell-based.
The target of series [7] is Mitogen-activated protein kinase 14 (Mus musculus) (UniProt P47811). Briefly: Activation of p38 alpha MAPK in mouse BV2 cells assessed as p38 phosphorylation at 10 uM by Western blot analysis. It counts as cell-based. The settings on record: TDE = time-dependent effect.
Series [8] concerns BV-2. Briefly: Antiinflammatory activity against mouse BV2 cells assessed as reduction in LPS-induced iNOS protein expression at 10 uM by Western blot analysis. The format is functional, cell-based.

One may read the EC50 as the concentration giving half of the maximal effect. A word on the GI50: it is the concentration that inhibits growth by half.

Mitogen-activated protein kinase 14 (Mus musculus), sequence (P47811 whole entry): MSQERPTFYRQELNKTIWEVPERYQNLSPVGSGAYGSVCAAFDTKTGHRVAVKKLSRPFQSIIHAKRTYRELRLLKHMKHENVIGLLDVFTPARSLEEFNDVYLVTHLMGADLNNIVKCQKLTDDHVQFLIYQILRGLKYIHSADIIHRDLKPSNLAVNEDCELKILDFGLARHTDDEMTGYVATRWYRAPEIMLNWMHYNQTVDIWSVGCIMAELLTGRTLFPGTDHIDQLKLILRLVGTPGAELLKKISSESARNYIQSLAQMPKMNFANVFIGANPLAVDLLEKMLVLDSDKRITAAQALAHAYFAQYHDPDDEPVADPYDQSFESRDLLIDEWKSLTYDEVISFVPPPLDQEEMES

For `CCCCCCCCCCCCCCCCOP(=O)([O-])OCC[N+](C)(C)C` [MILTEFOSINE], in the series with Leishmania donovani, the EC50 is 0.44 µM.
In the case of `O=C(CCC(F)(F)C(F)(F)C(F)(F)C(F)(F)F)NCCCCCCCCCN[C@@H]1[C@H](O)[C@@H](O)[C@H](O)[C@H]2COC(=O)N21`, the GI50 in the series on T47D, with SW1573, in the series with A549, in the series on WiDr, with HBL-100 and in the series on HeLa was above 100 µM in each case. Besides, in series [1], the CAC is 77.9 µM. In addition, the EC50 in the series with Leishmania donovani was above 40 µM; with THP-1 it was above 200 µM.
On to `O=C(CCC(F)(F)C(F)(F)C(F)(F)C(F)(F)C(F)(F)C(F)(F)C(F)(F)C(F)(F)F)NCCCCCCCCCN[C@@H]1[C@H](O)[C@@H](O)[C@H](O)[C@H]2COC(=O)N21`, for which the GI50 with T47D, with SW1573, in the series on A549, in the series on WiDr, in the series with HBL-100 and in the series on HeLa was above 100 µM each time. This compound also displayed a CAC in series [1] of 6.9 µM. In addition, the EC50 in the series on Leishmania donovani was found to be 30 µM; with THP-1, 152 µM.
As to `CCCCCCCCCCCCS(=O)(=O)[C@@H]1[C@H](O)[C@@H](O)[C@@H](O)[C@H]2COC(=O)N21`, the result in series [2] was Active.
For the compound `O=C(CCC(F)(F)C(F)(F)C(F)(F)C(F)(F)C(F)(F)C(F)(F)F)NCCCCCCCCCN[C@@H]1[C@H](O)[C@@H](O)[C@@H](O)[C@H]2COC(=O)N21`, the concentration for 50% growth inhibition (GI50) turned out to be 15 µM in the series with T47D; 14 µM in the series on SW1573; 17 µM with A549; 17 µM in the series with WiDr; 16 µM with HBL-100; 10 µM in the series on HeLa. The same compound showed a CAC in series [1] of 14 µM. Moreover, the Activity entry is “Tde” in series [3] and “Non-Toxic” in the series with BV-2 [5]. In addition, the outcome with BV-2 [4] and with BV-2 [6] was Active. Besides, the concentration for a half-maximal effect (EC50) worked out at 27.2 µM in the series on Leishmania donovani and 56.6 µM in the series with THP-1.
For `O=C(CCC(F)(F)C(F)(F)C(F)(F)C(F)(F)F)NCCCCCCCCCN[C@@H]1[C@H](O)[C@@H](O)[C@@H](O)[C@H]2COC(=O)N21`, the GI50 is 96 µM with T47D; above 100 µM in the series with SW1573; 76 µM in the series on A549; above 100 µM in the series on WiDr; above 100 µM in the series on HBL-100; 45 µM with HeLa. The CAC in [1] was found to be 118 µM. Besides, the figures for the EC50 in the series with Leishmania donovani and in the series with THP-1 were above 40 µM and above 200 µM, respectively.
As to `O=C(CCC(F)(F)C(F)(F)C(F)(F)C(F)(F)C(F)(F)C(F)(F)C(F)(F)C(F)(F)F)NCCCCCCCCCN[C@@H]1[C@H](O)[C@@H](O)[C@@H](O)[C@H]2COC(=O)N21`, the GI50 with T47D, in the series with SW1573, with A549, with WiDr, with HBL-100 and in the series on HeLa was above 100 µM throughout. Besides, in series [1], the CAC worked out at 13 µM. Also, the figures for the EC50 in the series on Leishmania donovani and in the series on THP-1 were 22.9 µM and 124 µM, respectively.
On to `O=C(CCC(F)(F)C(F)(F)C(F)(F)C(F)(F)C(F)(F)C(F)(F)F)NCCCCCCCCCN[C@@H]1[C@H](O)[C@@H](O)[C@H](O)[C@H]2COC(=O)N21`, for which the GI50 in the series on T47D is 11 µM; in the series on SW1573, 14 µM; in the series with A549, 12 µM; with WiDr, 13 µM; with HBL-100, 16 µM; in the series on HeLa, 12 µM. The Activity entry is “Tde” in [7] and “Non-Toxic” with BV-2 [5]. Moreover, the CAC in [1] amounted to 22 µM. Further, the result in the series with BV-2 [4] and with BV-2 [8] was Active. The EC50 with Leishmania donovani is 24.6 µM; in the series with THP-1 it was 65 µM.
